Data reported in patent publication US20250129092A1, “COMPOUNDS USEFUL IN MODULATION OF AHR SIGNALLING” (JAGUAHR THERAPEUTICS PTE LTD, priority 2021, published 2025).

Experiments:
[1] = biological target: T1, AhR (Homo sapiens, UniProt P35869); assay: AhR antagonism in U937 cells (Promega P450-Glo assay); format: cell-based; design: endogenous in cells; host or cells: U937 cells; conditions: CYP1A1 activity readout (Luciferin-CEE), head names VAF347, average, read-out: U937 Antagonist pIC50-VAF347: av. pIC50 (converted)
T1 sequence (P35869 11-848): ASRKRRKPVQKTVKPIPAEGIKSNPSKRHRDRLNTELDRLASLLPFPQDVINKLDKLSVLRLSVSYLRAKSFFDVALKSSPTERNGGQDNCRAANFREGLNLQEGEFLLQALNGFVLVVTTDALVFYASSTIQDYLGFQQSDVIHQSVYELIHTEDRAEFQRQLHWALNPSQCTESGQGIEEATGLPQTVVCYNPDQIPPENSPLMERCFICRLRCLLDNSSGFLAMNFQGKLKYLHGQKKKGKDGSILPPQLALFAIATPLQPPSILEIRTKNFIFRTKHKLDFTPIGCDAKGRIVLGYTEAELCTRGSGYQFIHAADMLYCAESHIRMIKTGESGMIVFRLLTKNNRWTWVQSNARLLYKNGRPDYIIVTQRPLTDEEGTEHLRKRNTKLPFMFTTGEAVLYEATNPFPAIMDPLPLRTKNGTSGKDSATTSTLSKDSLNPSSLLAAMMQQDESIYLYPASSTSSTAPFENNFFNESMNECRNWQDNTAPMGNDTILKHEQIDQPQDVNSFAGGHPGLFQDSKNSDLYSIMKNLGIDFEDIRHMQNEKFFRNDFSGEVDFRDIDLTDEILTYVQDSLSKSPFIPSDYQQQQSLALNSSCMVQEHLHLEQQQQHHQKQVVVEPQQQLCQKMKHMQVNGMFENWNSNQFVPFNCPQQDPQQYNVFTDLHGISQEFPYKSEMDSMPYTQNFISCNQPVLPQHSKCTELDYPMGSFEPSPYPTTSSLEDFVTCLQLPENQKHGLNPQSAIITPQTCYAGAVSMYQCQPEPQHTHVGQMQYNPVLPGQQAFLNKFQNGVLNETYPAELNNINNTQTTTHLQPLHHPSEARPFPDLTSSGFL
Description: In Vitro Assay 1: AhR Antagonism in U937 Cells (Promega P450-Glo™ Assay)
AhR antagonism was assessed in LJ937 cells (myeloid lineage cell line derived from a human histiocytic lymphoma). Ligand binds the AhR in the cytoplasm, and the AhR-ligand complex translocates to the nucleus and forms a heterodimer with AhR nuclear translocator (Arnt). This complex binds the xenobiotic response element (XRE) in the 5′ upstream region of the CYP1A1 promoter, enhancing CYP1A1 expression. CYP1A1 activity is subsequently determined by assessing the conversion of Luciferin-CEE to luciferin, which in turn reacts with luciferase to produce light. The amount of light produced is directly proportional to cytochrome P450 activity. U937 cells in Ultraculture serum free media (Lonza) were plated at 100,000 cells per well in a round bottom 96 well tissue culture plate. […] The plates were then placed in an incubator at 37° C., ≥85% humidity, 5% CO2 for 24 hrs. After aspiration of the supernatant the CYP1A1 substrate Luciferin-CEE ([Final] 83 μM) was added and incubated for 3 hrs before the reaction was stopped by adding luciferin detection reagent and luminescence was read after 20 minutes.

[2] = biological target: T1, AhR; assay: AhR antagonism in human PBMCs - inhibition of IL-22 release; format: cell-based; design: endogenous in cells; conditions: human PBMCs activated with CD3/CD28 agonist mixture, 72 hrs, IL-22 ELISA; average; read-out: hPBMC Inhibition of CD3/CD28 induced IL-22 release: av. pIC50 (converted)
Text: In Vitro Assay 3: AhR Antagonism in Human Peripheral Blood Mononuclear Cells (PBMCs)-Inhibition of Interleukin-22 (IL-22) Release.
PBMCs were isolated from human peripheral blood using Lymphoprep™ and diluted to 1×10^6 cells per ml in RPMI media containing […] foetal bovine serum, 1% penicillin-streptomycin and 1% non essential amino acids. PBMCs were subsequently activated with 1p1 per 100,000 cells of a CD3/CD28 agonist mixture (human T Cell TransAct™ (Miltenyi Biotec)) and then plated at 100,000 cells per well in a round bottom 96 well tissue culture plate. One hour after stimulation seven concentrations of each test compound or vehicle (final [DMSO] 0.2%) were added. The plates were then placed in an incubator at 37° C., ≥85% humidity, 5% […] for 72 hrs before the media was removed and stored at −20° C. until cytokine analysis. IL-22 was measured using human IL-22 DuoSet ELISA (R&D systems) according to the manufacturer's instructions.

In the case of `Cc1ncc(-c2nc(NCCc3c[nH]c4ccccc34)c3c(n2)N[C@H](CO)CO3)s1` [Example 60, [(7R)-4-[2-(1H-indol-3-yl)ethylamino]-2-(2-methylthiazol-5-yl)-7,8-dihydro-6H-pyrimido[5,4-b][1,4]oxazin-7-yl]methanol], the IC50 [1] is reported as 4.27 nM and the IC50 [2] is reported as 7.41 nM.

`COC[C@H]1COc2c(NCCc3c[nH]c4ccccc34)nc(-c3ccc[nH]c3=O)nc2N1` [Example 45, (S)-3-(4-((2-(1H-indol-3-yl)ethyl)amino)-7-(methoxymethyl)-7,8-dihydro-6H-pyrimido[5,4-b][1,4]oxazin-2-yl)pyridin-2(1H)-one] was tested, and the IC50 [1] was 3.8 nM and the IC50 [2] was under 1.02 nM.

Work on `Fc1cncc(-c2nc3c(c(NCCc4c[nH]c5ccccc45)n2)OCCN3)c1` [Example 1, 2-(5-fluoro-3-pyridyl)-N-[2-(1H-indol-3-yl)ethyl]-7,8-dihydro-6H-pyrimido[5,4-b][1,4]oxazin-4-amine] yielded an IC50 [1] of 0.724 nM and an IC50 [2] of 1.91 nM.

`C[C@H]1CNc2nc(-c3cncc(F)c3)nc(NCCc3c[nH]c4ccccc34)c2O1` [Example 29, (6S)-2-(5-fluoro-3-pyridyl)-N-[2-(1H-indol-3-yl)ethyl]-6-methyl-7,8-dihydro-6H-pyrimido[5,4-b][1,4]oxazin-4-amine] gave an IC50 [1] of 2.19 nM and an IC50 [2] of 3.02 nM.

`O=c1[nH]cc(F)cc1-c1nc2c(c(N[C@@H]3CCc4[nH]c5ccccc5c4C3)n1)OCCN2` [Example 71, (R)-5-fluoro-3-(4-((2,3,4,9-tetrahydro-1H-carbazol-3-yl)amino)-7,8-dihydro-6H-pyrimido[5,4-b][1,4]oxazin-2-yl)pyridin-2(1H)-one] showed an IC50 [1] of 126 nM and an IC50 [2] of 69.2 nM.

With `C[C@H]1COc2c(NCCc3c[nH]c4ccccc34)nc(-c3cncc(F)c3)nc2N1` [Example 8, (7S)-2-(5-fluoro-3-pyridyl)-N-[2-(1H-indol-3-yl)ethyl]-7-methyl-7,8-dihydro-6H-pyrimido[5,4-b][1,4]oxazin-4-amine] the IC50 [1] was 1.12 nM and the IC50 [2] was 1.05 nM.

For `Cn1cccc(-c2nc3c(c(NCCc4c[nH]c5ccccc45)n2)OCCN3)c1=O` [Example 19, 3-[4-[2-(1H-indol-3-yl)ethylamino]-7,8-dihydro-6H-pyrimido[5,4-b][1,4]oxazin-2-yl]-1-methyl-pyridin-2-one], the IC50 [1] was 51.3 nM and the IC50 [2] was 24.5 nM.

`Cc1ncc(-c2nc3c(c(NC4Cc5cccc6[nH]cc(c56)C4)n2)OCCN3)s1` (stereo not drawn) [Example 14, 2-(2-methylthiazol-5-yl)-N-(1,3,4,5-tetrahydrobenzo[cd]indol-4-yl)-7,8-dihydro-6H-pyrimido[5,4-b][1,4]oxazin-4-amine] was tested, and the IC50 [1] was 74.1 nM and the IC50 [2] was 100 nM.

`Cc1ncc(-c2nc(N[C@@H]3CCc4[nH]c5ccccc5c4C3)c3c(n2)N(CCO)CCO3)s1` [Example 37, 2-[2-(2-methylthiazol-5-yl)-4-[[(3R)-2,3,4,9-tetrahydro-1H-carbazol-3-yl]amino]-6,7-dihydropyrimido[5,4-b][1,4]oxazin-8-yl]ethanol] showed an IC50 [1] of 251 nM and an IC50 [2] of 123 nM.

`O=c1[nH]cc(F)cc1-c1nc2c(c(NCCc3c[nH]c4cc(F)ccc34)n1)OCCN2` [Example 70, 5-fluoro-3-(4-((2-(6-fluoro-1H-indol-3-yl)ethyl)amino)-7,8-dihydro-6H-pyrimido[5,4-b][1,4]oxazin-2-yl)pyridin-2 (1H)-one] was tested, and the IC50 [1] was 1.58 nM and the IC50 [2] was 0.646 nM.

In the case of `Fc1cncc(-c2nc(NCCc3c[nH]c4ccccc34)c3c(n2)N[C@@H](C(F)(F)F)CO3)c1` [Example 32, (7R)-2-(5-fluoro-3-pyridyl)-N-[2-(1H-indol-3-yl)ethyl]-7-(trifluoromethyl)-7,8-dihydro-6H-pyrimido[5,4-b][1,4]oxazin-4-amine], the IC50 [1] is reported as 2.51 nM and the IC50 [2] is reported as 14.5 nM.

Work on `O=c1[nH]cccc1-c1nc2c(c(NCCc3c[nH]c4ccccc34)n1)OCCN2` [Example 17, 3-[4-[2-(1H-indol-3-yl)ethylamino]-7,8-dihydro-6H-pyrimido[5,4-b][1,4]oxazin-2-yl]-1H-pyridin-2-one] yielded an IC50 [1] of 3.8 nM and an IC50 [2] of 1.66 nM.

`C[C@@H]1COc2c(NCCc3c[nH]c4ccccc34)nc(-c3cncc(F)c3)nc2N1` [Example 9, (7R)-2-(5-fluoro-3-pyridyl)-N-[2-(1H-indol-3-yl)ethyl]-7-methyl-7,8-dihydro-6H-pyrimido[5,4-b][1,4]oxazin-4-amine] showed an IC50 [1] of 0.513 nM and an IC50 [2] of 0.661 nM.

Work on `Fc1cc(F)cc(-c2nc3c(c(NCCc4c[nH]c5ccccc45)n2)OCCN3)c1` [Example 3, 2-(3,5-difluorophenyl)-N-[2-(1H-indol-3-yl)ethyl]-7,8-dihydro-6H-pyrimido[5,4-b][1,4]oxazin-4-amine] yielded an IC50 [1] of 3.55 nM and an IC50 [2] of 3.98 nM.

For `COc1ncccc1-c1nc2c(c(NCCc3c[nH]c4ccccc34)n1)OCCN2` [Example 64, N-[2-(1H-indol-3-yl)ethyl]-2-(2-methoxy-3-pyridyl)-7,8-dihydro-6H-pyrimido[5,4-b][1,4]oxazin-4-amine], the IC50 [1] was 61.7 nM and the IC50 [2] was 145 nM.

`Fc1cccc(-c2nc3c(c(NCCc4c[nH]c5ccccc45)n2)OCCN3)c1` [Example 50, 2-(3-fluorophenyl)-N-[2-(1H-indol-3-yl)ethyl]-7,8-dihydro-6H-pyrimido[5,4-b][1,4]oxazin-4-amine] was tested, and the IC50 [1] was 5.5 nM and the IC50 [2] was 22.4 nM.

With `COC[C@H]1COc2c(NCCc3c[nH]c4ccccc34)nc(-c3cncc(F)c3)nc2N1` [Example 28, (7S)-2-(5-fluoro-3-pyridyl)-N-[2-(1H-indol-3-yl)ethyl]-7-(methoxymethyl)-7,8-dihydro-6H-pyrimido[5,4-b][1,4]oxazin-4-amine] the IC50 [1] was 0.513 nM and the IC50 [2] was 0.617 nM.

With `C[C@@H]1CNc2nc(-c3cncc(F)c3)nc(NCCc3c[nH]c4ccccc34)c2O1` [Example 30, (6R)-2-(5-fluoro-3-pyridyl)-N-[2-(1H-indol-3-yl)ethyl]-6-methyl-7,8-dihydro-6H-pyrimido[5,4-b][1,4]oxazin-4-amine] the IC50 [1] was 5.5 nM and the IC50 [2] was 3.98 nM.

`COC[C@@H]1COc2c(NCCc3c[nH]c4ccccc34)nc(-c3cncc(F)c3)nc2N1` [Example 46, (7R)-2-(5-fluoro-3-pyridyl)-N-[2-(1H-indol-3-yl)ethyl]-7-(methoxymethyl)-7,8-dihydro-6H-pyrimido[5,4-b][1,4]oxazin-4-amine] gave an IC50 [1] of 0.759 nM and an IC50 [2] of under 1.35 nM.

With `O=c1[nH]cc(F)cc1-c1nc2c(c(NCCc3c[nH]c4ccccc34)n1)OCCN2` [Example 66, 3-(4-((2-(1H-indol-3-yl)ethyl)amino)-7,8-dihydro-6H-pyrimido[5,4-b][1,4]oxazin-2-yl)-5-fluoropyridin-2-ol] the IC50 [1] was 1.02 nM and the IC50 [2] was 0.324 nM.

In the case of `Cc1ncc(-c2nc3c(c(N[C@@H]4CCc5[nH]c6ccccc6c5C4)n2)OCC(CN(C)C)N3)s1` (mixture of isomers) [Example 38, 7-[(dimethylamino)methyl]-2-(2-methylthiazol-5-yl)-N-[(3R)-2,3,4,9-tetrahydro-1H-carbazol-3-yl]-7,8-dihydro-6H-pyrimido[5,4-b][1,4]oxazin-4-amine], the IC50 [1] is reported as 66.1 nM and the IC50 [2] is reported as 89.1 nM.
